Measurements published in US20200277556A1, “USE OF AN ADDITIVE TO IMPROVE THE QUALITY OF BEVERAGES BASED ON PLANT MUSTS” (OENOTROPIC INNOVATION, priority 2017, published 2020).

Test system: Wine Proteins
Test: Effect of different cofactors on the activity of bromelain on wine, SDS PAGE
Type: biochemical
Settings: CaCl2 as cofactor of bromelain; data not presented
Description: Cysteine is known to improve the activity of bromelain. […] To test the relevance of using methionine and glutathione as cofactors of a cysteine protease, the inventors compared the effect of these cofactors to the effect of cysteine on the activity of bromelain in wine. To this end, the following protocol has been implemented: • Wine: Gewurztraminer type with a pH of 3.8; • Add 10 mM of cysteine, glutathione or methionine, for 3 wine samples; • Weigh four times 8 mg of the pre-purified extract obtained from the sequence of steps 1, 2 and 4 of the above method; • Dissolve each pre-purified extract in wine, wine in the presence of cysteine, wine in the presence of glutathione and wine in the presence of methionine; • Leave in contact for 16 hours, with the plate stirring at 80 rpm and at room temperature; • Take 60 μl of the supernatant; • Add 20 μl of Laemmli 4×; • Place 50 μl on SDS PAGE gel.

With `[Ca+2].[Cl-].[Cl-]` [CaCl2, calcium chloride] the “effect on the hydrolysis of wine proteins” value was “positive effect”.
